Data reported in US20060276970A1, “Apparatus and method for the ozone preservation of crops” (Biofresh Limited, priority 2003, published 2006).

Legend:
Botrytis cinerea [1] = assay: Grey mould lesion development on wound-inoculated tomato fruit in ozone-enriched air; assay type: in vivo; settings: 50 ppb ozone, even for 2-8 h, 13° C., 95% RH
Source text: Fruit were wound-inoculated with a mycelial plug containing the pathogen^2 at day 0, transferred to charcoal-filtered air (CFA) or an ozone enriched CFA environment and then removed at intervals to 'clean air'. ^1 Monitored using duplicate photometric analysers calibrated to US-EPA standards ^2 plugs (2.5 mm diameter) were removed from the advancing margins of 3-day-old B. cinerea cultures (4-5-day-old in the case of A. alternaria) and inserted into a superficial wound made in the surface of the fruit (two wound-inoculations per fruit) FIG. 1. Experimental design: Fruit maintained in 'clean air' (CFA, →) or ozone (50 ppb or 200 ppb (→) and then inoculated (↓) with an agar plug containing the pathogen. Exposure to ozone performed in the dark at 13° C. and 95%. FIG. 2. Impacts of ozone-enrichment on the development of grey mould (Botrytis cinerea) on tomato (Lycopersicon esculentum […]) fruit wound-inoculated with a mycelial plug (Lycopersicon esculentum […]). Fruit were maintained in controlled environment chambers at 13° C. and 95% RH ventilated with charcoal-filtered 'clean' air (CFA, □) or CFA plus a trace level of ozone (50 ppb, ●). For experimental design see FIG. 1. Values represent mean (±SE) for 3-4 replicate fruit. Experiments repeated several times.

Alternaria alternata [2] = assay: Black spot development on wound-inoculated tomato fruit in ozone-enriched air; assay type: in vivo; settings: 50 ppb ozone, even for 2-8 h
Experimental: The development of black spot (Alternaria alternata) was suppressed by more than 50% in fruit maintained in an atmosphere containing a trace level of ozone (50 ppb)—even for a relatively short period of time (2-8 h). Fruit were inoculated with a mycelial plug containing the pathogen and the experiment was performed according to design B (FIG. 1).
FIG. 3. Impacts of ozone-enrichment on the development of black spot (Alternaria alternata) raised on tomato fruit (Lycopersicon esculentum L. cv. Mareta) wound-inoculated with an agar plug containing mycelia of the pathogen. Fruit were maintained in controlled environment chambers at 13° C. and 95% RFL Chambers were ventilated with ‘clean’ (chracoal-filtered) air (CFA, □) or CFA plus a trace level of ozone (50 ppb, ●). Values represent mean (±SE) for 3-4 replicate fruit.

Alternaria alternata [3] = assay: Spore production and viability on wound-inoculated tomato fruit; assay type: in vivo; settings: for Spore prod.: 50 ppb O3, tomato fruit, 13° C., 95% RH, after 9-12 d
Experimental: (§1) Fruit were wound-inoculated with a suspension containing c. 25×10^3 spores of Botrytis, Alternaria or Colletotrichum, then incubated in clean air or in an atmosphere containing a trace level of ozone (50 ppb) at 13° C., 95% RH. After 9-12 d, spores were washed from inoculated fruit, counts made on a haemocytometer and recovered spore aliquots inoculated onto agar. In vitro spore germination was monitored following 72 h incubation in ‘clean air’ or ‘clean air’ plus a trace level of ozone.

Botrytis cinerea [4] = assay: as above; assay type: in vivo; settings: for Spore germ.: 50 ppb O3, recovered spores on agar, 72 h incubation; for Spore prod.: 50 ppb O3, tomato fruit, 13° C., 95% RH, after 9-12 d
Experimental: as §1

Colletotrichum coccodes = assay: as above; assay type: in vivo; settings: for Spore germ.: 50 ppb O3, recovered spores on agar, 72 h incubation; for Spore prod.: 50 ppb O3, tomato fruit, 13° C., 95% RH, after 9-12 d
Experimental: as §1

Botrytis cinerea [5] = assay: Spore production on wound-inoculated easi-peel citrus, grapes and plums; assay type: in vivo; settings: 100 ppb ozone, 13° C., 95% RH, grapes, plums
Experimental: Fruit were wound-inoculated with spore suspensions of Botrytis cinerea, then incubated in either clean air or an atmosphere containing a trace level of ozone (100 ppb) at 13° C. and 95% RH.
FIG. 4. Impact of a trace level of ozone enrichment (solid bars) on the development of Botrytis cinerea (based on spore counts) on easi-peel citrus, grapes & plums Fruit were wound-inoculated with spore suspensions containing 10^3 (‘low’ inoculum concentration), 10^5 (‘medium’ inoculum concentration) or 10^7 (‘high’ inoculum concentration) Botrytis cinerea, then incubated in clean air or an atmosphere containing a trace level of ozone (100 ppb) at 13° C. and 95% RH, After 8-12 d, spores were washed from inoculated fruit, counts made on a haemocytometer and aliquots incubated on agar. Control fruit were maintained in ‘clean air’ (cross-hatch bars).
Plates 2a & 2b. Impact of a trace level of ozone enrichment on the development of Botrytis cinerea on easi-peel citrus and plums. Fruit were wound-inoculated with/in spore suspensions containing 10^3 (‘low’ inoculum concentration), 10^5 (‘medium’ inoculum concentration) or 10^7 (‘high’ inoculum concentration) Botrytis cinerea, then incubated in clean air or an atmosphere containing a trace level of ozone (100 ppb) at 13° C. and 95% RR Control fruit were maintained in ‘clean air’.

[6] = system: silver scurf (Helminthosporium solani); assay: Silver scurf development on stored potato tubers (spore counts, lesion area); assay type: in vivo; settings: for Lesion development (%): potato tubers; for Spores/ml: potato tubers cv. Estima, 3.5° C. then 13° C.
Experimental: Tubers […] were washed and selected for similar levels of silver scurf (Helminthosporium solani) infection. Prior to storage, tubers were sprayed with water in order to simulate a condensation event to promote the development of the disease. Tubers were then placed in chambers maintained at 3.5° C.±0.5° C., >95% RH) ventilated with either 'clean air' (charcoal-filtered air'; CFA) or 'clean air' plus a trace level of ozone (200 ppb). After four weeks, half the tubers were removed, then the temperature raised to 13±0.5° C. […] A spore count was calculated for each tuber (n=10) using a haemocytometer. Additionally, the initial and final surface area covered in silver scurf lesions was measured using a […] devices image analyser. Taking into account shrinkage of the potato over the storage period, the percentage of each tuber covered in silver scurf was calculated.

[7] = system: targeted fungal pathogens; assay: Colony development of fungal pathogens in vitro; assay type: cell-based; settings: ozone concentrations upto 5.0 ppm
Source text: This implies that the observed suppression of spoilage organisms by ozone results from molecular/biochemical changes in the treated produce per se—presumably through subtle shifts in the manner in which plant tissue responds to challenge by pathogens (see FIG. 7).

Botrytis cinerea [8] = assay: Vaccination: tomato fruit exposed to ozone before wound-inoculation with grey mould; assay type: in vivo
Experimental: Tomato fruit were incubated for varying periods in ‘clean’ air or an atmosphere enriched with a trace level of ozone (50 ppb), then wound-inoculated with a mycelial plug of grey mould (Botrytis cinerea). Two experimental designs were adopted for the investigation of ‘memory’ effects induced by ozone:
(§2) (a) Fruit were incubated in clean air prior to transfer to an atmosphere containing a trace level of ozone in such a manner that fruit were wound-inoculated with the pathogen at the same physiological age. For gene expression studies, RNA was extracted from fruit snap-frozen in liquid nitrogen 24 h after wounding/inoculation, immediately following exposure to ‘clean air’ or ozone, and after 1 or 2 weeks' storage in ‘clean air’
Or, (b) Fruit were incubated in clean air or ozone and wound-inoculated with Botrytis cincerea either (i) immediately following the period of exposure, (ii) following 1 weeks' incubation in ‘clean air’ or (iii) following 2 weeks' incubation in ‘clean air’
FIG. 5. Experimental designs to test whether exposure to a trace level of ozone vaccinates produce against subsequent infection. Tomato fruit were maintained in charcoal filtered air (CPA, →) or ozone (→) prior to wound-inoculation (↓) with grey mould (Botrytis cinerea). […] Lesion development was monitored during storage in clean air, over a 7-d incubation period. […]

[9] = system: Aco1, Aos, Chit3α, Chit9b, Glucac, Glucbs, Hpl; assay: Gene expression (RT-PCR) in tomato fruit induced by wounding/pathogen; assay type: in vivo, Lycopersicon esculentum L.; settings: 50 ppb ozone
Experimental: as §2
Shifts in gene expression patterns were therefore consistent with the observed effects of trace ozone-enrichment on the development of a variety of fungal pathogens.
FIG. 7. Ozone-induced suppression of gene expression (probed by RT-PCR) induced by wounding/pathogen. Aco1 (aminocyclopropancarboxylic acid oxidase) and Aos (allene-oxide synthase) govern the production of ethylene and jasmonate, respectively. These are key signalling molecules. Chit3a (chi3 type chitinase acidic), Chit9b (chi9-type chitinase basic), Glucac (β-1-3 glucanase acidic), Glucbs (β-1-3 glucanase basic), and Hpl hydroperoxide lyase) are all involved with defence against pathogens and other stresses. Gapdh was used as the control gene. Measurements made on tomato fruit (Lycopersicon esculentum L.) incubated throughout in controlled environment chambers maintained at 13° C. and 95% RH and ventilated with clean air or 50 ppb ozone. FIG. 7a, immediate; FIG. 7b, 1 week; FIG. 7c 2 weeks.

[10] = 200 ppb ozone weeks 1-4, NFA weeks 5-8
[11] = 200 ppb ozone weeks 1-4 and weeks 5-8

O=[O+][O-] [ozone]
Grey mould lesion development (Botrytis cinerea [1]): dramatically suppressed
Suppression of black spot development (Alternaria alternata [2]): more than 50%
Spore germ. (Alternaria alternata [3]; 50 ppb O3, recovered spores on agar, 72 h incubation): 99.86 ± 0.137
Spore prod. (Alternaria alternata [3]): dramatically reduced
Spore prod. (Alternaria alternata [3]; listed as O3): 5.83 ± 0.645
Spore germ. (Botrytis cinerea [4]): significantly reduced
Spore germ. (Botrytis cinerea [4]; listed as O3): 96.76 ± 0.613
Spore prod. (Botrytis cinerea [4]): dramatically reduced
Spore prod. (Botrytis cinerea [4]; listed as O3): 7.50 ± 1.510
Spore germ. (Colletotrichum coccodes): significantly reduced
Spore germ. (Colletotrichum coccodes; listed as O3): 52.50 ± 4.550
Spore prod. (Colletotrichum coccodes): dramatically reduced
Spore prod. (Colletotrichum coccodes; listed as O3): 2.44 ± 0.526
Development of the pathogen (based on spore production) (Botrytis cinerea [5]): dramatically reduced
Lesion development (%) [6, 10]: 21.34 a %
Spores/ml [6, 10]: 3.9 × 10^6 c Spores/ml
Lesion development (%) [6, 11]: 12.81 b %
Spores/ml [6, 11]: 1.7 × 10^6 b Spores/ml
Direct effects on colony development in vitro [7]: No direct effects
Persistence of vaccination effect after removal from ozone (Botrytis cinerea [8]; tomato fruit transferred to clean air): persisted for up to two weeks
Pathogen development after prior exposure to ozone (Botrytis cinerea [8]; trace level of ozone (50 ppb), even 2-8 h, before inoculation, tomato fruit): marked suppression
Persistence of gene expression effects after transfer to clean air [9]: persisted for upto two weeks
Expression of signal-transduction and defence genes ([9]; 13° C., 95% RH): decline
